Results reported in paper PMC12741935 (Alzheimer's & Dementia, 2025).

Tested on: brain proteome
Assay: Brain proteomics (DIA LC-MS/MS) after chronic NVS-PAK1-1 100 mg/kg BID PO vs vehicle in 5xFAD mice
Type: in vivo
Settings: for NES (gene set enrichment), NVS-PAK1-1 vs vehicle: Young Female
Method: A total of 91 brain samples were prepared from mice in this study and analyzed by mass spectrometry proteomics. One third of the mixed‐chopped left hemisphere tissue was homogenized in 8 M urea lysis buffer (8 M urea, 10 mM Tris, 100 mM NaH2PO4, pH 8.5) with HALT protease and phosphatase inhibitor cocktail (Thermo Fisher) and sonicated for three cycles consisting of 5 seconds of active sonication at 30% amplitude, followed by 15 seconds on ice. Samples were then centrifuged for 5 minutes at 15,000 g and the supernatant was transferred to a new tube. Protein concentration was determined by bicinchoninic acid (BCA) assay (Pierce). For protein digestion, 200 µg of each sample was aliquoted and volumes normalized with additional lysis buffer. Samples were reduced with 5 mM DTT at room temperature for 30 minutes, followed by 10 mM iodoacetamide (IAA) alkylation in the dark for another 30 minutes. Lysyl endopeptidase (Wako) at 1:25 (w/w) was added, and digestion allowed to proceed overnight. Samples were then 7‐fold diluted with 50 mM ammonium bicarbonate. Trypsin (Promega) was then added at 1:25 (w/w) and digestion proceeded overnight. The peptide solutions were acidified to a final concentration of 1% (vol/vol) FA and 0.1% (vol/vol) TFA and desalted with a 10 mg HLB column (Oasis). Each HLB column was first rinsed with 1 mL of methanol, washed with 1 mL 50% (vol/vol) acetonitrile (ACN), and equilibrated with 2 × 1 mL 0.1% (vol/vol) TFA. The samples were then loaded onto the column and washed with 2 × 1 mL 0.1% (vol/vol) TFA. Elution was performed with 0.5 mL 50% (vol/vol) ACN. Samples were split into 50 µL and 400 µL aliquots. Residuals from all samples were combined to create a global internal standard pool.
Samples were resuspended in an equal volume of loading buffer (0.1% FA, 0.03% TFA, 1% ACN) and analyzed by LC‐MS/MS. Peptide eluents (1 µg) were separated on a Water's CSH (15 cm × 150 µM internal diameter [ID] with 1.7 µm CSH resin) by a Dionex Ultimate 3000 RSLCnano (Thermo Fisher). Buffer A was water with 0.1% (vol/vol) formic acid, and buffer B was 80% (vol/vol) acetonitrile in water with 0.1% (vol/vol) FA. Elution was performed over a 30 minute gradient. The gradient was from 1% to 99% solvent B. Peptides were monitored on an Orbitrap Fusion Lumos mass spectrometer (Thermo Fisher). Each cycle consisted of one full scan (MS1) performed with an m/z range of 380 to 985 at a 60,000 resolution at standard settings and 30 data independent scans (DIA) in 1.5 seconds. The higher energy collision‐induced dissociation (HCD) tandem scans were collected at 30% collision energy with an isolation of 10 m/z, a resolution of 15,000, an AGC setting of 200% normalized AGC target, and a maximum injection time set to 40 ms.
Raw data files were converted to mzML format for downstream processing using ThermoRawFilerParser v.1.4.4.[30] The data were processed using Data‐Independent Acquisition by Neural Network (DIA‐NN) v.1.9.1.[31] A spectral library was generated using all canonical mouse proteins from UniProt and SwissProt (accessed September 24, 2024) and contaminants from the Common Repository of Adventitious Proteins (cRAP) database [https://www.thegpm.org/crap/]; these contaminant proteins were excluded from normalization and downstream analysis. DIA‐NN was run using parameters specified as follows: precursor charge was set from 1 to 4 and precursor m/z was set from 200 to 5000. Enzyme digestion was set to strict trypsin with 1 allowed missed cleavage, peptide length was set from 7 to 50, and peptide m/z was set from 150 to 3000. The maximum number of variable modifications was set to 3 and methionine oxidation was allowed as a variable modification. Cysteine carbamidomethylation was allowed as a fixed modification. MS1 and MS2 mass accuracy (in ppm) were set using autodetect and the scan window was set using autodetect. The false discovery rate (FDR) threshold was set to 1%. […]

CC(C)NC(=O)N1CC[C@H](NC2=Nc3cc(F)ccc3N(CC(F)F)c3ccc(Cl)cc32)C1 [NVS‐PAK1‐1, (S)‐3‐([2‐chloro‐5‐(2,2‐difluoroethyl)‐8‐fluoro‐5H‐dibenzo[b,e][1,4]diazepin‐11‐yl]amino)‐N‐isopropylpyrrolidine‐1‐carboxamide]
logFC, FAD5X_A_tx vs FAD5X_B_veh (ATP8, Aged M 5xFAD brain): -0.1292
logFC_NVS.PAK1.1_vs_vehicle (Acat2, Young F 5xFAD brain): -0.07095
logFC_NVS.PAK1.1_vs_vehicle (Acly, Young F 5xFAD brain): -0.0659
logFC_NVS.PAK1.1_vs_vehicle (Acly, Young M 5xFAD brain): -0.07659
logFC_NVS.PAK1.1_vs_vehicle (Agk, Young F 5xFAD brain): 0.08371
logFC_NVS.PAK1.1_vs_vehicle (Agl, Young F 5xFAD brain): -0.0869
logFC_NVS.PAK1.1_vs_vehicle (Aldh1l1, Young F 5xFAD brain): -0.1253
logFC_NVS.PAK1.1_vs_vehicle (Anxa6, Young M 5xFAD brain): -0.118
logFC_NVS.PAK1.1_vs_vehicle (App, Young F 5xFAD brain): -0.2576
logFC_NVS.PAK1.1_vs_vehicle (Armcx5, Young M 5xFAD brain): 0.3268
logFC_NVS.PAK1.1_vs_vehicle (Atl2, Aged F 5xFAD brain): -0.08745
logFC_NVS.PAK1.1_vs_vehicle (Atp2b4, Young M 5xFAD brain): 0.1099
logFC_NVS.PAK1.1_vs_vehicle (Atp5if1, Aged F 5xFAD brain): -0.5225
logFC_NVS.PAK1.1_vs_vehicle (Calr, Young F 5xFAD brain): -0.07235
logFC_NVS.PAK1.1_vs_vehicle (Cep170b, Young M 5xFAD brain): 0.1293
logFC_NVS.PAK1.1_vs_vehicle (Cfap61, Young F 5xFAD brain): -0.4846
logFC_NVS.PAK1.1_vs_vehicle (Cfl2, Young F 5xFAD brain): 0.1353
logFC_NVS.PAK1.1_vs_vehicle (Chordc1, Young F 5xFAD brain): -0.1408
logFC_NVS.PAK1.1_vs_vehicle (Ciapin1, Young M 5xFAD brain): -0.1789
logFC_NVS.PAK1.1_vs_vehicle (Cops5, Aged M 5xFAD brain): 0.1116
logFC_NVS.PAK1.1_vs_vehicle (Cox7a2, Aged F 5xFAD brain): -0.07809
logFC_NVS.PAK1.1_vs_vehicle (Dctn3, Young F 5xFAD brain): -0.07573
logFC_NVS.PAK1.1_vs_vehicle (Echdc1, Young F 5xFAD brain): -0.211
logFC_NVS.PAK1.1_vs_vehicle (Eef1b, Young F 5xFAD brain): -0.1102
logFC_NVS.PAK1.1_vs_vehicle (Eef2, Young F 5xFAD brain): -0.07944
logFC_NVS.PAK1.1_vs_vehicle (Ehd3, Aged M 5xFAD brain): 0.04696
logFC_NVS.PAK1.1_vs_vehicle (Eif1, Young F 5xFAD brain): -0.1062
logFC_NVS.PAK1.1_vs_vehicle (Elfn2, Aged M 5xFAD brain): -0.27
logFC_NVS.PAK1.1_vs_vehicle (Fasn, Young F 5xFAD brain): -0.08056
logFC_NVS.PAK1.1_vs_vehicle (Fdps.1, Young F 5xFAD brain): -0.1222
logFC_NVS.PAK1.1_vs_vehicle (Fn3krp, Aged M 5xFAD brain): 0.1203
NES (gene set enrichment), NVS-PAK1-1 vs vehicle (GO:0005740 mitochondrial envelope): 2.24
NES (gene set enrichment), NVS-PAK1-1 vs vehicle (GO:0005743 mitochondrial inner membrane): 2.303
NES (gene set enrichment), NVS-PAK1-1 vs vehicle (GO:0019866 organelle inner membrane): 2.289
NES (gene set enrichment), NVS-PAK1-1 vs vehicle (GO:0031966 mitochondrial membrane): 2.233
logFC_NVS.PAK1.1_vs_vehicle (Gap43, Young F 5xFAD brain): 0.1885
logFC_NVS.PAK1.1_vs_vehicle (Gnb1.1, Aged F 5xFAD brain): -0.6461
logFC_NVS.PAK1.1_vs_vehicle (Gng2, Young M 5xFAD brain): 0.102
logFC, FAD5X_A_tx vs FAD5X_B_veh (HC;Ighg2b, Aged M 5xFAD brain): 0.3576
logFC_NVS.PAK1.1_vs_vehicle (Hnrnpf, Aged F 5xFAD brain): -0.0585
logFC_NVS.PAK1.1_vs_vehicle (Hprt1, Young F 5xFAD brain): 0.09623
logFC_NVS.PAK1.1_vs_vehicle (Hsp90ab1, Young F 5xFAD brain): -0.08556
logFC_NVS.PAK1.1_vs_vehicle (Hsp90b1, Young F 5xFAD brain): -0.1385
logFC_NVS.PAK1.1_vs_vehicle (Hspa8.1, Young F 5xFAD brain): -0.05148
logFC_NVS.PAK1.1_vs_vehicle (Hsph1, Young F 5xFAD brain): -0.0893
logFC_NVS.PAK1.1_vs_vehicle (Idh1, Young F 5xFAD brain): -0.08685
logFC_NVS.PAK1.1_vs_vehicle (Idi1, Young F 5xFAD brain): -0.1582
logFC_NVS.PAK1.1_vs_vehicle (Kctd16, Young M 5xFAD brain): 0.1263
logFC_NVS.PAK1.1_vs_vehicle (Klc1, Young F 5xFAD brain): -0.06729
logFC_NVS.PAK1.1_vs_vehicle (Lcmt1, Young F 5xFAD brain): -0.08416
logFC_NVS.PAK1.1_vs_vehicle (Lcp1, Young F 5xFAD brain): -0.2692
logFC_NVS.PAK1.1_vs_vehicle (Lrfn4, Aged F 5xFAD brain): 0.3404
logFC_NVS.PAK1.1_vs_vehicle (Ly6h, Young M 5xFAD brain): 0.08528
logFC_NVS.PAK1.1_vs_vehicle (Map1lc3a, Young M 5xFAD brain): 0.1055
logFC_NVS.PAK1.1_vs_vehicle (Map7d2, Aged M 5xFAD brain): 0.1103
logFC_NVS.PAK1.1_vs_vehicle (Mark4, Young F 5xFAD brain): 0.2384
logFC_NVS.PAK1.1_vs_vehicle (Mib2, Aged M 5xFAD brain): -0.4263
logFC_NVS.PAK1.1_vs_vehicle (Mipep, Aged F 5xFAD brain): 1.596
logFC_NVS.PAK1.1_vs_vehicle (Myh10, Aged F 5xFAD brain): -1.404
logFC_NVS.PAK1.1_vs_vehicle (Mylk, Aged M 5xFAD brain): -1.455
logFC_NVS.PAK1.1_vs_vehicle (Nck2, Aged M 5xFAD brain): 0.1477
logFC_NVS.PAK1.1_vs_vehicle (Nherf1, Young F 5xFAD brain): -0.1106
logFC_NVS.PAK1.1_vs_vehicle (Nmd3, Young F 5xFAD brain): -0.95
logFC_NVS.PAK1.1_vs_vehicle (Nmt1, Young F 5xFAD brain): -0.1011
logFC_NVS.PAK1.1_vs_vehicle (Nomo1, Young F 5xFAD brain): -0.1733
logFC_NVS.PAK1.1_vs_vehicle (Nrdc, Aged M 5xFAD brain): -0.1746
logFC_NVS.PAK1.1_vs_vehicle (Ntm, Young M 5xFAD brain): 0.1007
logFC_NVS.PAK1.1_vs_vehicle (Pkm, Aged M 5xFAD brain): -0.04674
logFC_NVS.PAK1.1_vs_vehicle (Plpp3, Young F 5xFAD brain): -0.1143
logFC_NVS.PAK1.1_vs_vehicle (Plxna4, Young F 5xFAD brain): 0.1065
logFC_NVS.PAK1.1_vs_vehicle (Pnpo, Young F 5xFAD brain): 0.2
logFC_NVS.PAK1.1_vs_vehicle (Ppp1r21, Young F 5xFAD brain): -0.1088
logFC_NVS.PAK1.1_vs_vehicle (Ptgds, Young F 5xFAD brain): -0.128
logFC_NVS.PAK1.1_vs_vehicle (RTRAF, Young F 5xFAD brain): -0.06356
logFC_NVS.PAK1.1_vs_vehicle (Rab27b, Young F 5xFAD brain): 0.1779
logFC_NVS.PAK1.1_vs_vehicle (Rab33a, Aged M 5xFAD brain): -0.2639
logFC_NVS.PAK1.1_vs_vehicle (Rap2a, Young F 5xFAD brain): 0.09042
logFC_NVS.PAK1.1_vs_vehicle (Rasgef1a, Aged M 5xFAD brain): 0.8766
logFC_NVS.PAK1.1_vs_vehicle (Rbm4b, Aged M 5xFAD brain): -0.3664
logFC_NVS.PAK1.1_vs_vehicle (Robo2, Young M 5xFAD brain): 0.2982
logFC_NVS.PAK1.1_vs_vehicle (Rock2, Aged F 5xFAD brain): 0.0515
logFC_NVS.PAK1.1_vs_vehicle (Rpl34, Young F 5xFAD brain): -0.09945
logFC_NVS.PAK1.1_vs_vehicle (Rps3, Young F 5xFAD brain): -0.04356
logFC_NVS.PAK1.1_vs_vehicle (S100a1, Young F 5xFAD brain): -0.119
logFC_NVS.PAK1.1_vs_vehicle (Sec14l2, Young F 5xFAD brain): -0.1884
logFC_NVS.PAK1.1_vs_vehicle (Senp3, Young M 5xFAD brain): -0.3344
logFC_NVS.PAK1.1_vs_vehicle (Septin2, Young F 5xFAD brain): -0.1026
logFC_NVS.PAK1.1_vs_vehicle (Septin3, Young F 5xFAD brain): 0.07371
logFC_NVS.PAK1.1_vs_vehicle (Serpinb6, Young F 5xFAD brain): -0.1362
logFC_NVS.PAK1.1_vs_vehicle (Sgip1, Young M 5xFAD brain): 0.06159
logFC_NVS.PAK1.1_vs_vehicle (Snw1, Aged F 5xFAD brain): -0.2022
logFC_NVS.PAK1.1_vs_vehicle (Spag9, Aged F 5xFAD brain): -0.08904
logFC_NVS.PAK1.1_vs_vehicle (Stom, Aged F 5xFAD brain): -0.4369
logFC_NVS.PAK1.1_vs_vehicle (Stom, Young M 5xFAD brain): -0.67
logFC_NVS.PAK1.1_vs_vehicle (Stxbp5, Aged M 5xFAD brain): -0.08024
logFC_NVS.PAK1.1_vs_vehicle (Syngr1, Young M 5xFAD brain): 0.07489
logFC_NVS.PAK1.1_vs_vehicle (Sypl1, Aged M 5xFAD brain): 0.2577
logFC_NVS.PAK1.1_vs_vehicle (Tbc1d24, Young F 5xFAD brain): 0.08048
logFC_NVS.PAK1.1_vs_vehicle (Tkfc, Aged M 5xFAD brain): -0.1852
logFC_NVS.PAK1.1_vs_vehicle (Tom1l2, Aged M 5xFAD brain): 0.07172
logFC_NVS.PAK1.1_vs_vehicle (Txndc16, Young M 5xFAD brain): -1.405
logFC_NVS.PAK1.1_vs_vehicle (Usp54, Aged M 5xFAD brain): 2.652
logFC_NVS.PAK1.1_vs_vehicle (Vasp, Young F 5xFAD brain): 0.6308
logFC_NVS.PAK1.1_vs_vehicle (Vps33b, Aged M 5xFAD brain): -0.1328
logFC_NVS.PAK1.1_vs_vehicle (Wasf3, Young M 5xFAD brain): 0.12
logFC_NVS.PAK1.1_vs_vehicle (Zfp967;Zfp968, Young F 5xFAD brain): -1.398
